Measured values taken from US20180000085A1, “USE OF PICOLINAMIDE COMPOUNDS WITH FUNGICIDAL ACTIVITY” (DOW AGROSCIENCES LLC, priority 2014, published 2018).

Tests used:
[1] = system: Zymoseptoria tritici; assay: Leaf blotch of wheat (SEPTTR) disease control on wheat seedlings; type: in vivo; design: key to SEPTTR 1DP, HV activity at 100 ppm (% control rating) / SEPTTR 3DC, HV activity at 100 ppm (% control rating) / SEPTTR disease control, 1DP / SEPTTR disease control, 3DC / SEPTTR 1DP disease control rating, HV activity / SEPTTR 3DC disease control rating, HV activity / SEPTTR 3DC, LV activity at 125.1 g/H (% Control rating) / SEPTTR 1DP, LV activity at 125.1 g/H (% Control rating) / SEPTTR 1DP disease control rating, LV activity at 125.1 g/H / SEPTTR 3DC disease control rating, LV activity at 125.1 g/H / SEPTTR 3DC disease control rating, HV activity at 100 ppm / SEPTTR 1DP disease control rating, HV activity at 100 ppm / HV activity at 100 ppm SEPTTR 3DC (disease control rating) / HV activity at 100 ppm SEPTTR 1DP (disease control rating) / LV activity at 125.1 g/H SEPTTR 1DP (disease control rating) / LV activity at 125.1 g/H SEPTTR 3DC (disease control rating): A: > 80; B: ≤ 80; C: Not Tested; D: No Activity Observed in the Reported Assay; settings: for SEPTTR 1DP disease control rating, HV activity / SEPTTR 3DC disease control rating, HV activity: HV application at 100 ppm
[2] = system: Puccinia triticina; assay: Wheat brown rust (PUCCRT) disease control on wheat seedlings; type: in vivo; design: key to PUCCRT 3DC, HV activity at 100 ppm (% control rating) / PUCCRT disease control, 3DC / PUCCRT 1DP disease control rating, HV activity / PUCCRT 3DC disease control rating, HV activity / PUCCRT 3DC, LV activity at 125.1 g/H (% Control rating) / PUCCRT 1DP, LV activity at 125.1 g/H (% Control rating) / PUCCRT 3DC disease control rating, LV activity at 125.1 g/H / PUCCRT 1DP disease control rating, LV activity at 125.1 g/H / PUCCRT 3DC disease control rating, HV activity at 100 ppm / PUCCRT 1DP disease control rating, HV activity at 100 ppm / HV activity at 100 ppm PUCCRT 3DC (disease control rating) / LV activity at 125.1 g/H PUCCRT 1DP (disease control rating) / LV activity at 125.1 g/H PUCCRT 3DC (disease control rating): A: > 80; B: ≤ 80; C: Not Tested; D: No Activity Observed in the Reported Assay; settings: for PUCCRT 1DP disease control rating, HV activity / PUCCRT 3DC disease control rating, HV activity: HV application at 100 ppm
[3] = low volume application, 125.1 g/H, 1 Day Protectant
[4] = low volume application, 125.1 g/H, 3 Day Curative
[5] = low volume application, 125.1 g/H, 1 day protectant
[6] = low volume application, 125.1 g/H, 3 day curative
[7] = 1 Day Protectant, wheat leaf blotch
[8] = 3 Day Curative, wheat leaf blotch
[9] = 1 Day Protectant, wheat brown rust
[10] = 3 Day Curative, wheat brown rust

Compound	SEPTTR 1DP disease control rating, HV activity [1, 7]	SEPTTR 3DC disease control rating, HV activity [1, 8]	PUCCRT 1DP disease control rating, HV activity [2, 9]	PUCCRT 3DC disease control rating, HV activity [2, 10]	also measured
COCC[C@@H](OCc1ccccc1)[C@H](C)OC(=O)[C@H](C)NC(=O)c1nccc(OC)c1OCOC(C)=O [Cmpd 526]					SEPTTR 1DP, LV activity at 125.1 g/H (% Control rating) [1, 3]: B (≤ 80); SEPTTR 3DC, LV activity at 125.1 g/H (% Control rating) [1, 4]: B (≤ 80); PUCCRT 1DP, LV activity at 125.1 g/H (% Control rating) [2, 3]: D; PUCCRT 3DC, LV activity at 125.1 g/H (% Control rating) [2, 4]: B (≤ 80)
C=CC[C@@H](Oc1ccc(Cl)cc1Cl)[C@H](C)OC(=O)[C@H](C)NC(=O)c1nccc(OC)c1OCOC(C)=O [Cmpd 700]					SEPTTR 1DP disease control rating, LV activity at 125.1 g/H [1, 5]: D; SEPTTR 3DC disease control rating, LV activity at 125.1 g/H [1, 6]: B (≤ 80); PUCCRT 1DP disease control rating, LV activity at 125.1 g/H [2, 5]: A (> 80); PUCCRT 3DC disease control rating, LV activity at 125.1 g/H [2, 6]: A (> 80)
CCC(CC)[C@@H](Oc1ccc(-c2ccccc2)cc1)[C@H](C)OC(=O)[C@H](C)NC(=O)c1nccc(OC)c1OCOC(C)=O [Cmpd 596]					SEPTTR 1DP, LV activity at 125.1 g/H (% Control rating) [1, 3]: A (> 80); SEPTTR 3DC, LV activity at 125.1 g/H (% Control rating) [1, 4]: B (≤ 80); PUCCRT 1DP, LV activity at 125.1 g/H (% Control rating) [2, 3]: A (> 80); PUCCRT 3DC, LV activity at 125.1 g/H (% Control rating) [2, 4]: B (≤ 80)
COc1ccnc(C(=O)NC(C)C(=O)OC(C)C(OC(=O)C(C)C)C(C)C)c1O (stereo not drawn) [Cmpd 399]	B (≤ 80)	D	B (≤ 80)	D	
COc1ccnc(C(=O)NC(C)C(=O)OC(C)C(Oc2cccc(F)c2)C(C)C)c1O (stereo not drawn) [Cmpd 390]	B (≤ 80)	A (> 80)	A (> 80)	A (> 80)	
CCC(CC)[C@@H](Oc1cccc(-c2ccccc2)c1)[C@H](C)OC(=O)[C@@H](NC(=O)c1nccc(OC)c1O)C(C)C [Cmpd 413]	B (≤ 80)	D	B (≤ 80)	D	
CCC(CC)[C@@H](Oc1ccc(Cl)cc1Cl)[C@H](C)OC(=O)[C@H](C)NC(=O)c1nccc(OC)c1OCOC(C)=O [Cmpd 590]					SEPTTR 1DP, LV activity at 125.1 g/H (% Control rating) [1, 3]: B (≤ 80); SEPTTR 3DC, LV activity at 125.1 g/H (% Control rating) [1, 4]: B (≤ 80); PUCCRT 1DP, LV activity at 125.1 g/H (% Control rating) [2, 3]: A (> 80); PUCCRT 3DC, LV activity at 125.1 g/H (% Control rating) [2, 4]: B (≤ 80)
CC[C@@H](CCOC)[C@@H](Oc1ccccc1)[C@H](C)OC(=O)[C@@H](C)NC(=O)c1nccc(OC)c1O [Cmpd 308]	D	B (≤ 80)	D	D	
CCC(CC)C(Oc1cc(F)cc(Cl)c1)C(C)OC(=O)C(C)NC(=O)c1nccc(OC)c1O (stereo not drawn) [Cmpd 423]	A (> 80)	A (> 80)	A (> 80)	B (≤ 80)	
CCC[C@@H](Oc1ccc(C)cc1)[C@H](C)OC(=O)[C@H](C)NC(=O)c1nccc(OC)c1OC(C)=O [Cmpd 1060]					LV activity at 125.1 g/H SEPTTR 1DP (disease control rating) ([1]; low volume application, 125.1 g/H, 1 Day Protectant, wheat leaf blotch): B (≤ 80); LV activity at 125.1 g/H SEPTTR 3DC (disease control rating) ([1]; low volume application, 125.1 g/H, 3 Day Curative, wheat leaf blotch): B (≤ 80); LV activity at 125.1 g/H PUCCRT 1DP (disease control rating) ([2]; low volume application, 125.1 g/H, 1 Day Protectant, wheat brown rust): A (> 80); LV activity at 125.1 g/H PUCCRT 3DC (disease control rating) ([2]; low volume application, 125.1 g/H, 3 Day Curative, wheat brown rust): A (> 80)
CC(C)C[C@@H](Oc1cccc(F)c1)[C@H](C)OC(=O)[C@H](C)NC(=O)c1ncccc1O [Cmpd 1035]					HV activity at 100 ppm SEPTTR 1DP (disease control rating) ([1]; HV application, 100 ppm, 1 Day Protectant, wheat leaf blotch): B (≤ 80); HV activity at 100 ppm SEPTTR 3DC (disease control rating) ([1]; HV application, 100 ppm, 3 Day Curative, wheat leaf blotch): D; HV activity at 100 ppm PUCCRT 1DP (disease control rating) ([2]; HV application, 100 ppm, 1 Day Protectant, wheat brown rust): A (> 80); HV activity at 100 ppm PUCCRT 3DC (disease control rating) ([2]; HV application, 100 ppm, 3 Day Curative, wheat brown rust): A (> 80)
CC(NC(=O)c1ncccc1O)C(=O)OC(C)C(Oc1ccccc1)C(C)C (stereo not drawn) [Cmpd 424]	A (> 80)	A (> 80)	A (> 80)	A (> 80)	
